As usually defined, the IC50 is the concentration at which inhibition is half-maximal.

This note sets out measurements from patent US20260001879A1, “COMPOUNDS AS MYT1 INHIBITORS” (WIGEN BIOMMEDICINE TECHNOLOGY (SHANGHAI) CO., LTD., priority 2022, published 2026).

The target in one assay is recombinant protein MYT1 (Homo sapiens (Human), UniProt Q99640). Put plainly: In vitro assay for inhibiting MYT1 kinase activity (ADP-GLO). In kind it is biochemical. As to conditions: 10 μM ATP, read-out: Inhibitory activity against recombinant protein MYT1 IC50. On the procedure:
Recombinant MYT1 protein and the compounds were pre-incubated at room temperature for 15 min, and 10 μM ATP was then added to start the reaction. The mixture was incubated at room temperature for another 60 min, and the ADP-GLO reagent from Promega was then added. The resulting mixture was incubated in the dark for 40 min, a detection solution was then added, and the mixture was incubated for another 45-60 min. The chemiluminescence was determined using ENVISION. The inhibition rate and IC50 were calculated compared to the DMSO group.
In general terms: ADP-Glo turns the ADP formed in a reaction into a luminescent signal.

For assay [1], the system named is MIA PaCa-2 cells. As to the kind of experiment: In vitro anti-proliferative activity in combination with gemcitabine against MIA PaCa-2 cells. In kind it is cell-based. The protocol: MIA PaCa-2 cells were seeded on a 384-well plate at 3000 cells/well, and 20 nM gemcitabine was added. After overnight adherence culture, DMSO or the compounds serially diluted 1:5 from 1000 nM were added. The viability was assessed 72 h after dosing by measuring the intracellular ATP content. The inhibition percentage of viable cells by the compounds was calculated by comparing with the DMSO group, and the IC50 value was calculated.

In assay [2] the test system is MIA PaCa-2 cells. Put plainly: In vitro anti-proliferative activity against MIA PaCa-2 cells (compound alone). In kind it is cell-based. As to conditions: Homo sapiens, MIA PaCa-2, 72 h, intracellular ATP content. On the procedure: MIA PaCa-2 cells were seeded on a 384-well plate at 3000 cells/well. After overnight adherence culture, DMSO or the compounds serially diluted 1:5 from 10 μM were added. The viability was assessed 72 h after dosing by measuring the intracellular ATP content. The inhibition percentage of viable cells by the compounds was calculated by comparing with the DMSO group, and the IC50 value was calculated.

The mark [3] stands for this setting: read-out: Anti-proliferative activity against MIA PaCa-2 cells (20 nM gemcitabine) IC50, with 20 nM gemcitabine, 72 h, intracellular ATP content.

Chain of recombinant protein MYT1 (Q99640 whole entry): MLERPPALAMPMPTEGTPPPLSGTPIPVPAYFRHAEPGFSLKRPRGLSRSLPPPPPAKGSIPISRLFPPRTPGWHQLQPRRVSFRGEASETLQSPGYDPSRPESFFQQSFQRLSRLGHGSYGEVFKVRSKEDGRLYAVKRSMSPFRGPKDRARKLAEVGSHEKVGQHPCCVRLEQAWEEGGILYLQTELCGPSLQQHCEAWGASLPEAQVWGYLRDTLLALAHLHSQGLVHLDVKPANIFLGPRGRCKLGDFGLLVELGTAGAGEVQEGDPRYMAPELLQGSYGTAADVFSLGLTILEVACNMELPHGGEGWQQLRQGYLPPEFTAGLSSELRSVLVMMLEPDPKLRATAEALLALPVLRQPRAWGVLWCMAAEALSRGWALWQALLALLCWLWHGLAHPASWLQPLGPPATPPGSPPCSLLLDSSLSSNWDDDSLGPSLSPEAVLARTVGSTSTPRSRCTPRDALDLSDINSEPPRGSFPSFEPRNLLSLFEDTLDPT

Regarding `Cc1cc2c(C(N)=O)c(N)n(-c3c(C)cc(F)c(O)c3C)c2nc1C` (single isomer, unassigned) [Compound 5], the 50% inhibitory concentration (IC50) at recombinant protein MYT1 is no more than 200 nM.

Consider `Cc1cc2c(C(N)=O)c(N)n(-c3c(C)cc4c(c3C)NCC4)c2nc1C` [Compound 151], for which the IC50 in the assay on MIA PaCa-2 cells [1] (setting [3]) is greater than 1000 nM.

On to `Cc1cc2c(C(N)=O)c(N)n(-c3c(C)cc(F)c(O)c3C)c2nc1C` (single isomer, unassigned) [Compound 6], for which the figures for the IC50 at recombinant protein MYT1, in the assay on MIA PaCa-2 cells [2] and in the assay on MIA PaCa-2 cells [1] (setting [3]) were no more than 200 nM, greater than 10000 nM and 165 nM, respectively.

For the molecule `Cc1ccc(O)c(C)c1-n1c(N)c(C(N)=O)c2cc3c(nc21)CCCN3C` [Compound 104], the IC50 on recombinant protein MYT1 is no more than 200 nM.

Take `Cc1cc2c(C(N)=O)c(N)n(-c3c(C)c(O)cc(F)c3C)c2nc1C#N` [Compound 143]: the IC50 on recombinant protein MYT1 was no more than 200 nM.

In the case of `Cc1ccc(O)c(C)c1-n1c(N)c(C(N)=O)c2cc3ncccc3nc21` [Compound 50], the IC50 at recombinant protein MYT1 was no more than 200 nM.

For `Cc1cc2c(C(N)=O)c(N)n(-c3c(C)c(O)cc(F)c3Cl)c2nc1C` [Compound 24], the IC50 at recombinant protein MYT1 was no more than 200 nM.

In the case of `Cc1ccc(O)c(C)c1-n1c(N)c(C(N)=O)c2cc3c(nc21)COC3` [Compound 16], the IC50 on recombinant protein MYT1 is no more than 200 nM; in the assay on MIA PaCa-2 cells [2] it was greater than 10000 nM; in the assay with MIA PaCa-2 cells [1] (setting [3]) it was 101 nM.

Turning to `Cc1cc2c(C(N)=O)c(N)n(-c3c(C)cc4c(c3C)NCC4)c2nc1C` [Compound 150], in the assay on MIA PaCa-2 cells [1] (Homo sapiens, MIA PaCa-2, 72 h, read-out: Anti-proliferative activity against MIA PaCa-2 cells (20 nM gemcitabine) IC50, with 20 nM gemcitabine, 72 h, intracellular ATP content), the IC50 was greater than 1000 nM.

On to `Cc1cc(F)c(O)c(C)c1-n1c(N)c(C(N)=O)c2cc(C#N)c(C)nc21` [Compound 140], for which, on recombinant protein MYT1, the IC50 was no more than 200 nM.

On to `Cc1ccc(O)c(C)c1-n1c(N)c(C(N)=O)c2cc3c(ncn3C)nc21` [Compound 66], for which the IC50 at recombinant protein MYT1 was no more than 200 nM.

In the case of `Cc1ccc(O)c(C)c1-n1c(N)c(C(N)=O)c2cc3c(nc21)CCN(C)C3` [Compound 96], the 50% inhibitory concentration (IC50) at recombinant protein MYT1 is no more than 200 nM.

For `Cc1cc2c(C(N)=O)c(N)n(-c3c(C)ccc(O)c3C)c2c(C#N)c1C` [Compound 173], the IC50 on recombinant protein MYT1 was no more than 200 nM.

Consider `Cc1ccc(O)c(C)c1-n1c(N)c(C(N)=O)c2cc3c(nc21)COC3` [Compound 15], for which the IC50 on recombinant protein MYT1 is no more than 200 nM.

For the molecule `Cc1ccc(O)c(C)c1-n1c(N)c(C(N)=O)c2cc(C#N)c(C)nc21` [Compound 9], the half-maximal inhibitory concentration (IC50) on recombinant protein MYT1 is no more than 200 nM.

For `Cc1ccc(O)c(C)c1-n1c(N)c(C(N)=O)c2cc3c(nc21)CCN3` [Compound 77], on recombinant protein MYT1, the IC50 is no more than 200 nM.

On to `Cc1cc2c(cc1C#N)c(C(N)=O)c(N)n2-c1c(C)c(O)cc(F)c1C` [Compound 160], for which the IC50 at recombinant protein MYT1 is no more than 200 nM.

For the molecule `Cc1ccc(O)c(C)c1-n1c(N)c(C(N)=O)c2cc3occc3nc21` [Compound 62], on recombinant protein MYT1, the IC50 was no more than 200 nM.

Consider `Cc1ccc(O)c(C)c1-n1c(N)c(C(N)=O)c2cc3nccnc3cc21` [Compound 60], for which the IC50 on recombinant protein MYT1 was no more than 200 nM.
